Results published in patent publication US20020065227A1, “Charged compounds comprising a nucleic acid binding moiety and uses therefor” (priority 2000, published 2002).
Converted amounts (≈) assume the structure as drawn. Read-outs that look alike come from different tables or passages of the source.

What was measured:
[1] = system: Peptostreptococcus asaccharolytics (29743); experiment: MIC, NCCLS broth microdilution; type: cell-based; conditions: anaerobe
[2] = system: Streptococcus pyogenes (49339); experiment: MIC, NCCLS broth microdilution; type: cell-based
[3] = system: Cryptococcus neoformans (90112); experiment: MIC, antifungal assay; type: cell-based
Candida albicans (90028) [4] = experiment: MIC, antifungal assay; type: cell-based
Bacillus cereus (11778) [5] = experiment: MIC, NCCLS broth microdilution; type: cell-based
[6] = system: Staphylococcus aureus (29213); experiment: MIC, NCCLS broth microdilution; type: cell-based
[7] = system: Candida albicans (38247) (Polyene resistant); experiment: MIC, antifungal assay; type: cell-based
Micrococcus luteus (381) = experiment: MIC, NCCLS broth microdilution; type: cell-based
[8] = system: Corynebacterium Group A (49676); experiment: MIC, NCCLS broth microdilution; type: cell-based
Bacillus subtilis (6633) = experiment: MIC, NCCLS broth microdilution; type: cell-based
[9] = system: Candida parapsilosis (10232); experiment: MIC, antifungal assay; type: cell-based
[10] = system: Clostridium perfringens (13124); experiment: microbe, parasite or virus in culture; type: cell-based
[11] = system: Candida tropicalis (13803); experiment: MIC, antifungal assay; type: cell-based
[12] = system: Staphylococcus aureus (33591) (methicillin resistant); experiment: MIC, NCCLS broth microdilution; type: cell-based
Esherichia coli (25922) = experiment: MIC, NCCLS broth microdilution; type: cell-based, Escherichia coli
[13] = system: Enterococcus faecalis (29212); experiment: MIC, NCCLS broth microdilution; type: cell-based
[14] = system: Streptococcus pneumoniae (49619); experiment: MIC, NCCLS broth microdilution; type: cell-based
[15] = system: Enterococcus faecium (51559) (vacomycin resistant); experiment: MIC, NCCLS broth microdilution; type: cell-based
[16] = system: Pseudomona aeruginosa (27853); experiment: MIC, NCCLS broth microdilution; type: cell-based
[17] = system: Staphylococcus epidermidis (12228); experiment: MIC, NCCLS broth microdilution; type: cell-based
[18] = system: Propionibacterium acnes (33179); experiment: MIC, NCCLS broth microdilution; type: cell-based; conditions: anaerobe
[19] = system: Haemophilus influenzae (49247); experiment: MIC, NCCLS broth microdilution; type: cell-based
ACTACT = experiment: DNase I footprint titration, ACTACT site; type: binding; conditions: equilibrium association constant Ka; pH 7.0, 22° C.
[20] = system: Listeria monocytogenes (19115); experiment: MIC, NCCLS broth microdilution; type: cell-based
[21] = system: Streptococcus pneumoniae (51422) (multiple drug resistant); experiment: MIC, NCCLS broth microdilution; type: cell-based
[22] = system: Aspergillus niger (10535); experiment: MIC, antifungal assay; type: cell-based
[23] = system: Saccharomyces cerevisiae (44773); experiment: MBC according to NCCLS guideline; type: cell-based
ATTACT = experiment: DNase I footprint titration, ATTACT site; type: binding; conditions: equilibrium association constant Ka; pH 7.0, 22° C.
all species tested = experiment: Microbicidal activity (MIC versus MBC), all species tested; type: cell-based; conditions: in words; from difference between MICs and MBCs
Excerpt: The minimal bactericidal concentration (MBC) has been determined for some of these designed compounds according to NCCLS guideline (Lorian, V. 1996 Antibiotics in laboratory medicine (The Williams & Wilkins Co., Baltimore, Md.)). The difference between the MICs and the MBCs has been established as an index of the bactericidal activity of an antibiotic.

[24] = system: Trichophyto tonsurans (28942); experiment: MIC, antifungal assay; type: cell-based
[25] = system: Paecilomyces variotii (22319); experiment: MIC, antifungal assay; type: cell-based
AGTACT = experiment: DNase I footprint titration, AGTACT site; type: binding; conditions: equilibrium association constant Ka; pH 7.0, 22° C.
AATACT = experiment: DNase I footprint titration, AATACT site; type: binding; conditions: equilibrium association constant Ka; pH 7.0, 22° C.
[26] = system: Saccharomyces cerevisiae (44773); experiment: MIC, antifungal assay; type: cell-based
[27] = system: Streptococcus pneumoniae (49619); experiment: MBC according to NCCLS guideline; type: cell-based
Bacillus anthracis = type: cell-based
Candida albicans (90028) [28] = experiment: MBC according to NCCLS guideline; type: cell-based
Fusarium solani (36031) = experiment: MIC, antifungal assay; type: cell-based
[29] = system: Enterococcus faecalis (29212); experiment: MBC according to NCCLS guideline; type: cell-based
Bacillus cereus (11778) [30] = experiment: MBC according to NCCLS guideline; type: cell-based
[31] = system: Staphylococcus aureus (29213); experiment: MBC according to NCCLS guideline; type: cell-based
[32] = system: different species of bacteria and fungi; conditions: in words
[33] = system: dsDNA restriction fragment; experiment: dsDNA binding, DNase I footprinting on restriction fragment; conditions: in words
TGGTCA = conditions: equilibrium association constant Ka; pH 7.0, 22° C.
[34] = Streptococcus pyogenes (49339), Table Ia: Streptococcus Group A(49339)
[35] = Corynebacterium Group A (49676)
[36] = Staphylococcus aureus (33591), methicillin resistant (MRSA)
[37] = Streptococcus pneumoniae (49619)
[38] = Enterococcus faecium (51559), vancomycin resistant
[39] = Staphylococcus epidermidis (12228)

Structure (SMILES): Cn1cc(NC(=O)c2cc(NC(=O)c3cc(NC=O)cn3C)cn2C)cc1C(=O)NCCC(=N)N [Distamycin, distamycin, reference compound]
- MIC [1]: 8 µg/mL (≈ 16.6 µM)
- MIC [2, 34]: 32 µg/mL (≈ 66.5 µM)
- MIC ([3]; Cryptococcus neoformans (90112)): >128 µg/mL
- MIC (Candida albicans (90028) [4]): >128 µg/mL
- MIC (Bacillus cereus (11778) [5]; Bacillus cereus (11778)): 8 µg/mL (≈ 16.6 µM)
- MIC ([6]; Staphylococcus aureus (29213)): 32 µg/mL (≈ 66.5 µM)
- MIC [7]: >128 µg/mL
- MIC (Micrococcus luteus (381)): 32 µg/mL (≈ 66.5 µM)
- MIC [8, 35]: 16 µg/mL (≈ 33.2 µM)
- MIC (Bacillus subtilis (6633); Bacillus subtilis (6633)): 64 to 128 µg/mL
- MIC ([9]; Candida parapsilosis (10232)): >128 µg/mL
- MIC [10]: 8 µg/mL (≈ 16.6 µM)
- MIC ([11]; Candida tropicalis (13803)): >128 µg/mL
- MIC [12, 36]: 16 µg/mL (≈ 33.2 µM)
- MIC (Esherichia coli (25922); Escherichia coli (25922)): >128 µg/mL
- MIC ([13]; Enterococcus faecalis (29212)): 16 to 32 µg/mL
- MIC [14, 37]: 16 µg/mL (≈ 33.2 µM)
- MIC [15, 38]: 128 µg/mL (≈ 266 µM)
- MIC ([16]; Pseudomona aeruginosa (27853)): >128 µg/mL
- MIC [17, 39]: 64 µg/mL (≈ 133 µM)
- MIC [18]: 16 µg/mL (≈ 33.2 µM)

Structure (SMILES): Cn1cc(NC(=O)c2cc(NC(=O)CN=C(N)N)cn2C)cc1C(=O)NCCC(=N)N [Netropsin, netropsin, reference compound]
- MIC ([2]; Streptococcus pyogenes): 8 µg/mL (≈ 18.6 µM)
- MIC ([3]; Cryptococcus neoformans): 4 µg/mL (≈ 9.29 µM)
- MIC ([19]; Haemophilus influenzae): 4 µg/mL (≈ 9.29 µM)
- MIC (Bacillus cereus (11778) [5]; Bacillus cereus): 2 µg/mL (≈ 4.65 µM)
- MIC ([6]; Staphylococcus aureus): 4 µg/mL (≈ 9.29 µM)
- MIC ([8]; Corynebacterium): 0.5 µg/mL (≈ 1.16 µM)
- MIC (Bacillus subtilis (6633); Bacillus subtilis): 4 µg/mL (≈ 9.29 µM)
- MIC ([9]; Lodderomyces parapsilosis): 16 µg/mL (≈ 37.2 µM)
- MIC ([11]; Candida tropicalis): 16 µg/mL (≈ 37.2 µM)
- MIC ([12]; Staphylococcus aureus, MRSA): 4 µg/mL (≈ 9.29 µM)
- MIC (Esherichia coli (25922); Escherichia coli): 2 µg/mL (≈ 4.65 µM)
- MIC ([13]; Enterococcus faecalis): 2 µg/mL (≈ 4.65 µM)
- MIC ([14]; Streptococcus pneumoniae): 0.125 µg/mL (≈ 0.29 µM)
- MIC ([15]; Enterococcus faecium): 8 µg/mL (≈ 18.6 µM)
- MIC [16]: > 128 µg/mL
- MIC ([17]; Staphylococcus epidermidis): 2 to 4 µg/mL (≈ 4.65 to 9.29 µM)

Structure (SMILES): CN(C)CCCNC(=O)c1cc(NC(=O)c2cc(NC(=O)c3cc(NC(=O)c4nsc(NCCCN)c4Cl)cn3C)cn2C)cn1C [V-b]
- MIC [1]: 0.125 µg/mL (≈ 0.182 µM)
- Binding Constant, sequence ACTACT (ACTACT): 2e+08 M⁻¹
- MIC [2, 34]: 0.25 µg/mL (≈ 0.364 µM)
- MIC (Candida albicans (90028) [4]): 4 µg/mL (≈ 5.83 µM)
- MIC ([19]; Haemophilus influenzae (49247)): 32 µg/mL (≈ 46.6 µM)
- MIC [20]: 8 µg/mL (≈ 11.7 µM)
- MIC (Bacillus cereus (11778) [5]; Bacillus cereus (11778)): 0.5 µg/mL (≈ 0.729 µM)
- MIC ([6]; Staphylococcus aureus (29213)): 2 µg/mL (≈ 2.91 µM)
- MIC [21]: 1 µg/mL (≈ 1.46 µM)
- MIC [8, 35]: 0.5 µg/mL (≈ 0.729 µM)
- MIC (Bacillus subtilis (6633); Bacillus subtilis (6633)): 0.5 to 1 µg/mL
- MIC [22]: 4 µg/mL (≈ 5.83 µM)
- MBC [23]: 16 µg/mL (≈ 23.3 µM)
- Binding Constant, sequence ATTACT (ATTACT): 1e+08 M⁻¹
- Microbicidal activity (all species tested): microbicidal agents for all species tested
- MIC [24]: 16 µg/mL (≈ 23.3 µM)
- MIC ([10]; Clostridium perfringens (13124), anaerobe): 1 µg/mL (≈ 1.46 µM)
- MIC [12, 36]: 4 µg/mL (≈ 5.83 µM)
- MIC (Esherichia coli (25922); Escherichia coli (25922)): >128 µg/mL
- MIC ([13]; Enterococcus faecalis (29212)): 1 µg/mL (≈ 1.46 µM)
- MIC [25]: 0.5 µg/mL (≈ 0.729 µM)
- Binding Constant, sequence AGTACT (AGTACT): 3e+09 M⁻¹
- MIC [14, 37]: 0.5 µg/mL (≈ 0.729 µM)
- Binding Constant, sequence AATACT (AATACT): 1e+08 M⁻¹
- MIC [26]: 16 µg/mL (≈ 23.3 µM)
- MIC [15, 38]: 2 to 4 µg/mL
- MIC ([16]; Pseudomona aeruginosa (27853)): >128 µg/mL
- MBC [27]: 0.5 µg/mL (≈ 0.729 µM)
- MIC [17, 39]: 2 µg/mL (≈ 2.91 µM)
- MIC (Bacillus anthracis): 32 µg/mL (≈ 46.6 µM)
- MBC (Candida albicans (90028) [28]): 4 µg/mL (≈ 5.83 µM)
- MIC [18]: 4 µg/mL (≈ 5.83 µM)
- MIC (Fusarium solani (36031)): 4 to 8 µg/mL
- MBC [29]: >4 µg/mL
- MBC (Bacillus cereus (11778) [30]): 0.5 µg/mL (≈ 0.729 µM)
- MBC [31]: 4 µg/mL (≈ 5.83 µM)

Structure (SMILES): CN(C)CCCNC(=O)CCNC(=O)c1cc(NC(=O)c2cc(NC(=O)c3nsc(Cl)c3Cl)cn2C)cn1C [V-cc]
- Anti-pathogenic properties [32]: significant anti-pathogenic properties
- dsDNA binding [33]: good binder for dsDNA

Structure (SMILES): CN(C)CCCNC(=O)CCNC(=O)c1cc(NC(=O)c2cc(NC(=O)c3cc(NC(=O)c4cc(NC(=O)c5nsc(Cl)c5Cl)cn4C)cn3C)cn2C)cn1C [V-t]
- Binding Constant, sequence ACTACT (ACTACT): 2e+08 M⁻¹
- Binding Constant, sequence ATTACT (ATTACT): 2e+08 M⁻¹
- Binding Constant, sequence TGGTCA (TGGTCA): 1e+10 M⁻¹
- Binding Constant, sequence AGTACT (AGTACT): 2e+08 M⁻¹
- Binding Constant, sequence AATACT (AATACT): 2e+08 M⁻¹

Structure (SMILES): CN(C)CCCNC(=O)CCNC(=O)c1cc(NC(=O)c2cc(NC(=O)c3cc(NC(=O)c4nc(NC(=O)CCCNC(=O)c5cc(NC(=O)c6cc(NC(=O)c7nsc(Cl)c7Cl)cn6C)cn5C)cn4C)cn3C)cn2C)cn1C [VI-c]
- Binding Constant, sequence ACTACT (ACTACT): 1e+08 M⁻¹
- Binding Constant, sequence ATTACT (ATTACT): 1e+10 M⁻¹
- Sequence preference of binding [33]: bind ATTACT, and AATACT preferentially to ACTACT and AGTACT
- Binding Constant, sequence AGTACT (AGTACT): 2e+08 M⁻¹
- Binding Constant, sequence AATACT (AATACT): 1e+09 M⁻¹
